According to patent publication EP4653006A1, “NOVEL MIXTURE OF ACTIVE INGREDIENTS, COMPOSITIONS CONTAINING THEM, AND THEIR USE AGAINST ALLERGY AND/OR INFLAMMATION” (Global Pharmacies Partner S.R.L. in Forma Abbreviata G.P.P. …, priority 2024, dated 2025):

What was measured:
RBL-2H3 cells = assay: degranulation (β-hexosaminidase release) in sensitized/stimulated RBL-2H3 cells; assay type: cell-based, rat; conditions: positive control 20 µM
Procedure: The antiallergic activity of the tested sample of mixture M was evaluated by measuring its ability to prevent degranulation processes in a rat leukemia cell line (RBL-2H3), widely used as a model simulating mast cells in immunological and allergological studies.
(§1) The RBL-2H3 cells were first sensitized and then stimulated to induce degranulation.
The test was conducted on RBL-2H3 cells grown in DMEM (Dulbecco's modified Eagle medium) containing 10% fetal bovine serum (FBS) and 1% antibiotics (penicillin and streptomycin) and incubated in standard culture conditions (37°C, 5% CO2). […]
The medium was then recovered and separated from the cells and incubated with 4-nitrophenyl-N-acetyl-β-D-glucosamide. The reaction was stopped with carbonate buffer and the absorbance was measured by spectrophotometric reading at 405 nm. Degranulation was calculated as the percentage of β-hexosaminidase relative to non-sensitized (NS) cells as follows: Degranulation (%) = (ODX)/(ODNS)⋅100 [formula]
The measured absorbance (optical density, OD) is directly proportional to the amount of β-hexosaminidase present in the analyzed fluids, which in turn correlates positively with the levels of histamine released during the degranulation phase and is therefore an indicative marker of the degranulation process. […] The values are expressed as means ± standard deviation. […]

TNFα = TNFα release by ELISA in sensitized/stimulated RBL-2H3 cells; assay type: cell-based, rat; conditions: positive control 20 µM
Procedure: The anti-inflammatory action was instead evaluated, always in the same cell line, by measuring the ability of the sample to inhibit the release of tumor necrosis factor alpha (TNFα).
as §1
The test was conducted on RBL-2H3 cells grown in DMEM (Dulbecco's modified Eagle medium) containing 10% fetal bovine serum (FBS) and 1% antibiotics (penicillin and streptomycin) and incubated in standard culture conditions (37°C, 5% CO2). RBL-2H3 cells are widely used in allergy and immunology research, as, like mast cells, they express FCεRI and, following cross-linking between IgE bound to FCεRI and allergens, they undergo degranulation. In this way, therefore, they simulate the behavior of mast cells and basophils in their response to an immunological stimulus.
The supernatant recovered from the cells was also used for the dosage of TNFα performed by ELISA (Enzyme-Linked Immunosorbent Assay), a very widespread biochemical technique used for the quantification of proteins and peptides. In an ELISA assay, a specific […] for TNFα is immobilized on a solid surface (the bottom of a well) to which the assay medium is added. Detection is done by means of a biotinylated secondary antibody and then reacted with streptavidin-HRP. The colorimetric reaction is proportional to the amount of TNFα present. The results are read by spectrophotometer at 450 nm. The values obtained were then interpolated into a standard curve of TNFα.
The absorbance (optical density, OD) measured at 450 nm is directly proportional to the amount of TNFα produced by the tissues. To calculate the concentrations of TNFα, the OD values obtained were interpolated into a standard curve of TNFα. The percentages were calculated with respect to the non-sensitized and non-stimulated cells (NS). The values are expressed as means ± standard deviation. Statistical processing of the data was performed by Student's t-test. Values of p<0.05 are considered significant. […]

C=C1CC[C@H]2C(=C)CC[C@H]3C(=C)C(=O)O[C@@H]3[C@@H]12 [PC, Dehydrocostolactone]
protection (% vs NC), reduction in degranulation (RBL-2H3 cells): 80.8%
β-hexosaminidase (% vs NS) (RBL-2H3 cells; anti-DNP IgE / DNP-HSA, NC = 1,274.6): 244.8%
protection (% vs NC), reduction in TNFα release (TNFα): 19.5%
TNFα (% vs NS) (TNFα; NC = 227.8): 183.4%
TNFα (TNFα; NC = 248.8): 200.3 pg/mL
